The source of these data is patent publication EP0811621A2, “Carbamoyl substituted oxazoles as thromboxane receptor antagonists” (ELI LILLY AND COMPANY, priority 1996, dated 1997).

As a reminder, the inhibition is the relative decrease from the control value, in per cent. The term Kd denotes a measure of binding affinity in units of concentration. Higher therefore signals a looser complex.

One test deals with T1, thromboxane synthase (Homo sapiens, UniProt P24557).
T1 construct: from tissue; host or cells: whole human blood
T1 sequence (P24557 1-533): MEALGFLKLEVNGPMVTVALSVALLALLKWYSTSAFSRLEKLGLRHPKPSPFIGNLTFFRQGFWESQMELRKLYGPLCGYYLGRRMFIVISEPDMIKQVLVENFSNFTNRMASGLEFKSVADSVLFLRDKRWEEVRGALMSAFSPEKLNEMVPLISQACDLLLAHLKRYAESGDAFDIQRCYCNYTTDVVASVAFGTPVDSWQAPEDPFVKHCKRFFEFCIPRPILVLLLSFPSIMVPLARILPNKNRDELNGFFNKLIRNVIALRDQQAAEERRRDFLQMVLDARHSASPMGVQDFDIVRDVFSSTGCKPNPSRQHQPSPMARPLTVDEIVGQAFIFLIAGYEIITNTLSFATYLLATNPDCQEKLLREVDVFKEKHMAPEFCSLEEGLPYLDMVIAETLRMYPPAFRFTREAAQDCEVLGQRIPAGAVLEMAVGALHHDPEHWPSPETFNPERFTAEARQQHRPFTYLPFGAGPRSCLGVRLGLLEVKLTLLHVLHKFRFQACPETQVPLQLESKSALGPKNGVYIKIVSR
The test is described as follows: Thromboxane synthase inhibition in vitro (whole human blood, serum TXB2 by radioimmunoassay). Conditions: 30 min at 37 °C. Type of test: cell-based. The procedure: Measurement of Thromboxane Synthase Inhibition and Prostacyclin Formation:
(§1) • 1. In vitro Experiments. The ability of a test compound to inhibit thromboxane synthase, as well as to change the amount of prostacyclin formed, were measured using published methods. […] Serum TXB2 and 6-keto-PGF1a, the stable metabolites of TXA2 and prostacyclin (PGI2), respectively, were measured by radioimmunoassay as described (Jakubowski, J.A., et al., Arteriosclerosis, (1987), 7, 599-604). The ability of a test compound to inhibit thromboxane synthase is expressed in the form of its IC50. […] Sprague Dawley rats (300 g males) were dosed by oral gavage with either vehicle (5% acacia) or 1-10 mg/kg test compound. Blood samples were collected 1 h after dosing. Animals were anesthetized (sodium pentobarbitol, 87 mg/kg i.p.) 15 min before sample collection. Blood samples were obtained by cardiac puncture via a butterfly catheter and the first mL of blood was discarded. Blood samples were divided into duplicates and incubated at 37 °C for 1 h in 13x100 mm glass tubes. Serum was separated by centrifugation at 2000 x g for 15 min at 25 °C, transferred to polypropylene tubes, and stored at -20 °C for subsequent assay using the methods referenced above.

For the next test, the system named is TXA2 formation. Kind of test: Ex vivo inhibition of TXA2 formation following oral administration. It is filed as in vivo. Conditions: Rattus norvegicus, 1 h, Sprague Dawley rats, oral gavage, one hour after dosing. The procedure: as §1
Test [1] relates to TXA2/PGH2 receptor-induced human platelet aggregation. The test is described as follows: Platelet Aggregation Studies (U46619-induced aggregation in platelet-rich plasma). To be noted: read-out: IC50, concentration of test compound required to inhibit U46619-induced platelet aggregation by 50%, U46619 (1 micromolar), 1 min preincubation at 37 °C. Type of test: cell-based. The procedure:
(§2) Measurement of Thromboxane Receptor Antagonism:
(§3) • 1. Receptor Binding Assay. Membranes from outdated human platelets were prepared as previously described (Mais, D. E., et al., Eur. J. Pharmacol. (1992), 227, 267-274). Incubations (220 µL) containing 10 µg of platelet membranes were performed in siliconized glass tubes (12 x 75 mm) at 30 °C for 30 min. The incubation media consisted of 10 mM Hepes, 2 mM CHAPS, 10 µM Indomethacin (pH = 7.4), ∼0.05 nM (∼25000 cpm) of [^125I]IBOP per tube, and varying concentrations of competing ligands ranging from 10^-10 to 10^-5 M. The reaction was terminated by addition of 4 mL of ice cold buffer (25 mM Tris) at pH 7.4, followed by rapid filtration through Whatman GF/C glass filters pre-soaked in 0.3% polyethyleneamine (Whatman, Inc., Clifton, NJ) using a Brandel M-24 cell harvester (Gaithersburg, MD). Non-specific binding was defined as that amount of radioactivity bound in the presence of a large molar excess (10 µM) of SQ29548, a potent TXA2/PGH2 receptor antagonist. The binding in this assay is defined in terms of the dissociation constant Kd. […] Platelet Aggregation Studies. The ability of a test compound to antagonize TXA2/PGH2 receptor-induced human platelet aggregation was studied in the following manner. Blood was collected from volunteers who denied taking any medication known to influence platelet aggregation within the previous 10 days. […] Platelet-rich plasma was prepared by centrifugation at 100 x g for 12 min, and platelet-poor plasma was prepared by centrifugation at 12,000 x g for 2 min. Receptor activation and subsequent platelet aggregation was induced by the addition of the stable analog of TXA2/PGH2, U46619 (1 micromolar). Aggregation was monitored in a Biodata PAP4 platelet aggregation profiler for 3 min after the addition of U46619. Test compound or vehicle was preincubated with platelet-rich plasma for 1 min at 37 °C prior to the induction of aggregation with U46619.

The subject of the next test is pithed rats. The test is described as follows: Absence of Agonist Activity (pressor response after i.v. administration). It is filed as in vivo.
Another test has as its target T2, TXA2/PGH2 receptor (Homo sapiens, UniProt P21731).
T2 construct: Membranes from outdated human platelets were prepared as previously described; from tissue; host or cells: human platelets (membranes)
T2 sequence (P21731 1-343): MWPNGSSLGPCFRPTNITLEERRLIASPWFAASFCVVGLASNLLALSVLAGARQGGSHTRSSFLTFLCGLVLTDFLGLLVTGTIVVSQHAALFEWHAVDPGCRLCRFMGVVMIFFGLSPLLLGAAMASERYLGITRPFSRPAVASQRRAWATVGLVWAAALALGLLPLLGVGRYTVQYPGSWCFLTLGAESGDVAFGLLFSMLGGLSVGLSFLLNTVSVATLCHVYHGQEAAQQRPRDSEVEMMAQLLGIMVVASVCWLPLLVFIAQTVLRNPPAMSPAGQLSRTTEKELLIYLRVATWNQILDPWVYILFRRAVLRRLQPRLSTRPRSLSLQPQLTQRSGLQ
Kind of test: Receptor Binding Assay ([125I]IBOP, platelet membranes). Conditions: 30 °C for 30 min. The procedure: as §2, §3

As to `O=C(O)CCCC/C=C(/c1ccc(-c2nc(C(=O)NCCCCC3CCCCC3)co2)cc1)c1cccnc1` [Example 4, (Z)-7-[4-[4-[[(4-Cyclohexylbutyl)amino]carbonyl]-2-oxazolyl]phenyl]-7-(3-pyridyl)hept-6-enoic Acid], at thromboxane synthase, the IC50 was > 10000 nM.
`O=C(O)CCCC/C=C(\c1ccc(-c2nc(C(=O)NCCCCC3CCCCC3)co2)cc1)c1cccnc1` [Example 2, (E)-7-[4-[4-[[(4-Cyclohexylbutyl)amino]carbonyl]-2-oxazolyl]phenyl]-7-(3-pyridyl)hept-6-enoic Acid]: the IC50 at thromboxane synthase came out at 55 nM; in test [1], 400 nM. The inhibition at 3 mg/kg in the test with TXA2 formation was > 95%. For the same molecule, the “pressor response (TXA2 agonist activity)” value with pithed rats (pithed rats, i.v., doses up to 10 mg/kg) is listed as “absence of a pressor response”. Also, on TXA2/PGH2 receptor, binding was characterised by a dissociation constant (Kd) of 9.9 nM.
Take `O=C(O)CCC/C=C\C[C@H]1[C@@H]2CC[C@@H](C2)[C@@H]1NS(=O)(=O)c1ccccc1` [Example S-145, reference compound]: the mean arterial pressure entry with pithed rats (one minute after dosing at 0.1 mg/kg i.v.) was “transient, but significant, increase”.
Consider `O=C(O)CCCC/C=C(\c1ccc(-c2nc(C(=O)NCCCCOc3ccccc3)co2)cc1)c1cccnc1` [Example 30, (E)-7-[4-[4-[[(4-Phenoxybutyl)amino]carbonyl]-2-oxazolyl]phenyl]-7-(3-pyridyl)hept-6-enoic Acid], for which the figures for the IC50 (at thromboxane synthase; in test [1]) were 48.9 nM and 500 nM, respectively. The Kd on TXA2/PGH2 receptor worked out at 52.2 nM.
In the case of `O=C(O)CCCC/C=C(\c1ccc(-c2nc(C(=O)N[C@@H]3C[C@H]3c3ccccc3)co2)cc1)c1cccnc1` (single isomer, unassigned) [Example 19, (+)-(E)-7-[4-[4-[[(2-(trans)Phenylcyclopropyl)amino]carbonyl]-2-oxazolyl]phenyl]-7-(3-pyridyl)hept-6-enoic Acid], the IC50 in test [1] turned out to be 5000 nM.
For the molecule `O=C(O)CCCC/C=C(/c1ccc(C2=N[C@H](C(=O)NCCCCC3CCCCC3)CO2)cc1)c1cccnc1` [Example 3, (4S)-(Z)-7-[4-[4-[[(4-Cyclohexylbutyl)amino]carbonyl]-4,5-dihydro-2-oxazolyl]phenyl]-7-(3-pyridyl)hept-6-enoic Acid], the IC50 against thromboxane synthase was > 10000 nM.
With `CC(OCCCNC(=O)c1coc(-c2ccc(/C(=C\CCCCC(=O)O)c3cccnc3)cc2)n1)C1CCCCC1` (centres unmarked) [Example 26, (E)-7-[4-[4-[[[3-(1-Cyclohexylethoxy)propyl]amino]carbonyl)-2-oxazolyl]phenyl]-7-(3-pyridyl)hept-6-enoic Acid], the IC50 worked out at 11.5 nM on thromboxane synthase and 5000 nM in test [1]. The same molecule returned an equilibrium dissociation constant (Kd) at TXA2/PGH2 receptor of 58.2 nM.
Take `O=C(O)CCCC/C=C(\c1ccc(C2=N[C@H](C(=O)NCCCCC3CCCCC3)CO2)cc1)c1cccnc1` [Example 1, (4S)-(E)-7-[4-[4-[[(4-Cyclohexylbutyl)amino]carbonyl]-4,5-dihydro-2-oxazolyl]phenyl]-7-(3-pyridyl)hept-6-enoic Acid]: the IC50 against thromboxane synthase is 82.1 nM.
Consider `O=C(O)CCCC/C=C(\c1ccc(-c2nc(C(=O)NCCCN3CCOCC3)co2)cc1)c1cccnc1` [Example 27, (E)-7-[4-[4-[[(3-Morpholinopropyl)amino]carbonyl]-2-oxazolyl]phenyl]-7-(3-pyridyl)hept-6-enoic Acid], for which, at TXA2/PGH2 receptor, the Kd was > 10000 nM.
